# Results reported in PMC10342533, “Novel Tetrazole Derivatives Targeting Tubulin Endowed with Antiproliferative Activity against Glioblastoma Cells” (International Journal of Molecular Sciences, 2023).
# Experiments:
# [1] = tested on: HEK-293 (embryonic kidney); experiment: Cell growth inhibition, MTT assay, non-tumor HEK-293; format: cell-based; settings: Homo sapiens
# Protocol: The ability of the synthesized compounds to inhibit the cell proliferation of human cancer cell lines was assayed by measuring cell viability through the use of the MTT method 72 h after treatment. For this purpose, representative cell lines of the most frequent kinds of cancer were selected, including the following: HeLa (cervix epithelioid carcinoma), MCF7 (breast adenocarcinoma), U87 MG (glioblastoma), T98G (temozolomide resistant glioblastoma), HepG2 (hepatocellular carcinoma), HCT8 (colorectal carcinoma), and HT-29 (colon adenocarcinoma). […] The compounds were also tested against the non-tumor HEK-293 cells to study their selectivity toward cancer cells. […] The cell lines were obtained from ATTC (Manassas, VA, USA). […] The cells were periodically tested for Mycoplasma infection by using a MycoAlert kit (Lonza, Norwest, Australia), and only Mycoplasma-free cells were used in the experiments. […] Louis, MO, USA), which was dissolved in PBS at 5 mg/mL in accordance with the manufacturer's instructions. […] Untreated cells were used as negative controls. The antiproliferative activity of compounds was measured 72 h after drug exposure through the MTT assay. […] For this purpose, compounds were used at different concentrations, ranging from 10^-10 to 10^-2 M. Measurements were performed in triplicate, and each experiment was repeated three times. The IC50 values were determined using Origin software (version 9.6, OriginLab, Washington, DC, USA).
# [2] = tested on: HeLa (cervix epithelioid carcinoma); experiment: Cell growth inhibition, MTT assay, HeLa; format: cell-based; settings: Homo sapiens
# Protocol: (§1) The ability of the synthesized compounds to inhibit the cell proliferation of human cancer cell lines was assayed by measuring cell viability through the use of the MTT method 72 h after treatment. For this purpose, representative cell lines of the most frequent kinds of cancer were selected, including the following: HeLa (cervix epithelioid carcinoma), MCF7 (breast adenocarcinoma), U87 MG (glioblastoma), T98G (temozolomide resistant glioblastoma), HepG2 (hepatocellular carcinoma), HCT8 (colorectal carcinoma), and HT-29 (colon adenocarcinoma).
# (§2) The cell lines were obtained from ATTC (Manassas, VA, USA). […] The cells were periodically tested for Mycoplasma infection by using a MycoAlert kit (Lonza, Norwest, Australia), and only Mycoplasma-free cells were used in the experiments.
# (§3) Then, every compound was added (10 µL/well) to a final concentration of 10 µM. Untreated cells were used as negative controls. The antiproliferative activity of compounds was measured 72 h after drug exposure through the MTT assay. […] For this purpose, compounds were used at different concentrations, ranging from 10^−10 to 10^−2 M. Measurements were performed in triplicate, and each experiment was repeated three times. The IC50 values were determined using Origin software (version 9.6, OriginLab, Washington, DC, USA).
# [3] = target: T1, microtubular protein isolated from calf brains (bovine brain tubulin) (Bos taurus, UniProt P81947+Q6B856); experiment: Tubulin polymerization inhibition (TPI); format: biochemical; settings: in vitro tubulin polymerization, mean ± SD
# T1 construct: from tissue; host or cells: calf (bovine) brain
# Protocol: We evaluated the capacity of the new synthesized compounds to inhibit the polymerization of microtubular protein isolated from calf brains. The assays were performed by taking absorbance measurements to quantify the amount of polymer mass formed in the presence (or absence; negative controls) of the compounds.
# Bovine brain tubulin was isolated as previously described by following a modified version of the Shelanski method. The protein was stored at −80 °C, and its concentration was determined by employing the Bradford method before each use. […] Tubulin polymerization, caused when heating the samples, was accompanied by an increase in the absorbance (at 450 nm) of the sample that was monitored by using a Helios α spectrophotometer. […] Measurements were performed in triplicate in two independent experiments using microtubular proteins from different preparations.
# [4] = tested on: HepG2 (hepatocellular carcinoma); experiment: Cell growth inhibition, MTT assay, HepG2; format: cell-based; settings: Homo sapiens
# Protocol: as §1, §2, §3
# U87 MG (glioblastoma) = experiment: Cell growth inhibition, MTT assay, U87 MG; format: cell-based; settings: Homo sapiens, U-87 MG
# Protocol: as §1, §2, §3
# [5] = Aqueous solubility, shake-flask method, phosphate buffer pH 7.4; format: physicochemical; settings: thermodynamic from solid, phosphate buffer pH 7.4, shake-flask, mean ± SD of three experiments
# Protocol: The aqueous solubility of tetrazole derivatives was determined by the shaking flask methodology in phosphate buffer at pH 7.4, microfiltration, and quantification of the saturated solutions via UV spectroscopy. […] The introduction of polar groups on the 3-indole position was favorable since the most soluble compounds were the oximes 16–19 (38–53 µg/mL), followed by the carbaldehyde series 12–15 (33–45 µg/mL), and the carbonitrile derivatives (25–40 µg/mL), whereas the unsubstituted indoles 8–11 were the least soluble series (19–35 µg/mL).
# The aqueous solubility of the compounds was determined using the saturation shake-flask method. First, calibration lines at the maximum wavelength of absorbance were determined for each compound. Then, 5 mg of each compound was suspended in 500 µL of pH 7.4 buffer, and the resulting mixture was shaken for 72 h at room temperature and filtrated over a […] filter to remove the insoluble fraction. The concentration of the compound in the supernatant (saturated solution) was determined by measuring UV absorbance at the maximum wavelength of absorbance and interpolation in the calibration line. A Helios Alfa Spectrophotometer was used for the UV measurements. The aqueous solubility values are given as the average of three independent experiments.
# [6] = tested on: HCT8 (colorectal carcinoma); experiment: Cell growth inhibition, MTT assay, HCT8; format: cell-based; settings: Homo sapiens
# Protocol: as §1, §2, §3
# [7] = tested on: HT-29 (colon adenocarcinoma); experiment: Cell growth inhibition, MTT assay, HT-29, without or with verapamil; format: cell-based, human
# Protocol: as §1
# Multidrug resistance (MDR) proteins, especially P-glycoprotein (P-gp), are often involved in resistance mechanisms affecting tubulin-binding drugs that are frequently related to the failure of cancer therapies. […] These pumps are also part of the blood–brain barrier.
# as §2, §3
# [8] = tested on: MCF7 (breast adenocarcinoma); experiment: Cell growth inhibition, MTT assay, MCF7; format: cell-based; settings: Homo sapiens
# Protocol: as §1, §2, §3
# [9] = tested on: T98G (temozolomide resistant glioblastoma); experiment: Cell growth inhibition, MTT assay, T98G; format: cell-based; settings: Homo sapiens
# Protocol: as §1, §2, §3
# [10] = HEK293, 72 h, non-tumorigenic cell line
# [11] = HCT-8, 72 h after drug exposure
# [12] = Homo sapiens, HT-29, 72 h after drug exposure
# [13] = Homo sapiens, HT-29, mean ± SD, Table S1
# [14] = mean ± SD, Table S1, in the presence of verapamil (10 µM)
# [15] = HEK293, heading: IC50 HEK-293, mean ± SD, Table S1, non-tumorigenic cell line
# T1 sequence (Q6B856 whole entry): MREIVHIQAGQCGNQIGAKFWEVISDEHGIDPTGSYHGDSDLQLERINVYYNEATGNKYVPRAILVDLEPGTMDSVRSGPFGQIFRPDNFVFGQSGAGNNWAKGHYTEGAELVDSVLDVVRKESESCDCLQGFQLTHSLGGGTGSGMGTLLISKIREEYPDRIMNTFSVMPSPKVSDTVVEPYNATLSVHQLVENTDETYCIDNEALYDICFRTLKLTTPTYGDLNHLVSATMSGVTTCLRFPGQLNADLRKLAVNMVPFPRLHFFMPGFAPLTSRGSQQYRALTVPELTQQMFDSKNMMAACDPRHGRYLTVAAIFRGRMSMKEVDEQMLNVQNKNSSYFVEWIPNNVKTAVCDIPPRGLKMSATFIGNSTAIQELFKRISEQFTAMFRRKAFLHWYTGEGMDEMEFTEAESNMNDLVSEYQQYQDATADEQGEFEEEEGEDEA
# T1 sequence (P81947 whole entry): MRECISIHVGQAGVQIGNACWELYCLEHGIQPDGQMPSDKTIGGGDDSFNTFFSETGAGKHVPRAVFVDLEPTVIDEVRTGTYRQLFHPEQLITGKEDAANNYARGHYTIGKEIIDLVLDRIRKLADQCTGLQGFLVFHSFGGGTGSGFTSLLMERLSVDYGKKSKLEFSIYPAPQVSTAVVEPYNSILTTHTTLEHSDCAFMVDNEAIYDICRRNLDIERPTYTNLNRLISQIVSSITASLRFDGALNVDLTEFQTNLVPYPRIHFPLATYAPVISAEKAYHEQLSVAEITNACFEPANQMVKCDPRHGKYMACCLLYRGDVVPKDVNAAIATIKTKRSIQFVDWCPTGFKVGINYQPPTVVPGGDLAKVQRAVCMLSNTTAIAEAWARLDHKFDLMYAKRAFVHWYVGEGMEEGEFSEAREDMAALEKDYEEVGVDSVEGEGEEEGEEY
IC50 ([2]; 72 h after drug exposure) [nM],"IC50 ([2]; mean ± SD, Table S1) [nM]",IC50 [3] [nM],IC50 ([4]; 72 h after drug exposure) [nM],"IC50 ([4]; mean ± SD, Table S1) [nM]",IC50 (U87 MG (glioblastoma); 72 h after drug exposure) [nM],"IC50 (U87 MG (glioblastoma); mean ± SD, Table S1) [nM]",solubility at 72 h [5] [µg/mL],"IC50 [6, 11] [nM]","IC50 [7, 12] [nM]","IC50 [7, 13] [nM]","IC50 [7, 14] [nM]",melting point [°C],IC50 ([8]; 72 h after drug exposure) [nM],"IC50 ([8]; mean ± SD, Table S1) [nM]","IC50 ([9]; 72 h, 72 h after drug exposure) [nM]","IC50 ([9]; mean ± SD, Table S1) [nM]","IC50 ([6]; HCT-8, mean ± SD, Table S1) [nM]",Compound,"IC50 [1, 10] [nM]","IC50 [1, 15] [nM]"
233,233.1 ± 1.4,3800 ± 100,227,227 ± 2.5,209,209.3 ± 1.9,30.7 ± 0.3,236,255,255 ± 2.6,257 ± 3,160 to 161,240,240.2 ± 2,219,219 ± 2.2,,"CSc1cc(-c2nnnn2-c2ccc3c(ccn3C)c2)cc(SC)n1 [Compound 11, 5-(5-(2,6-bis(methylsulfanyl)pyridin-4-yl)-1H-tetrazol-1-yl)-1-methyl-1H-indole]",6820,
57,57.5 ± 0.3,2800 ± 200,55,55.3 ± 0.2,55,55.4 ± 0.4,45.3 ± 0.4,50,64,64.2 ± 0.4,67.3 ± 0.6,214 to 215,65,65.4 ± 0.5,54,54.1 ± 0.3,50.1 ± 0.4,"COc1cc(-c2nnnn2-c2ccc3c(c2)c(C=O)cn3C)cc(Cl)n1 [Compound 13, 5-(5-(2-chloro-6-methoxypyridin-4-yl)-1H-tetrazol-1-yl)-1-methyl-1H-indole-3-carbaldehyde]",3720,
144,144 ± 1.7,3500 ± 200,137,137 ± 1.5,115,115 ± 1.4,41.2 ± 0.4,141,244,244.1 ± 1.8,242 ± 2.5,207 to 208,130,130.1 ± 1.1,122,122.5 ± 1.2,141.3 ± 1,"CSc1cc(-c2nnnn2-c2ccc3c(c2)c(C=O)cn3C)cc(SC)n1 [Compound 15, 5-(5-(2,6-bis(methylsulfanyl)pyridin-4-yl)-1H-tetrazol-1-yl)-1-methyl-1H-indole-3-carbaldehyde]",6480,
625,625.4 ± 4.2,6200 ± 300,634,634.5 ± 5.6,522,522.1 ± 3.1,25.3 ± 0.1,628,679,679.4 ± 4,682.3 ± 6.3,,631,631.4 ± 4.9,555,555.4 ± 4.2,,"Cn1cc(C#N)c2cc(-n3nnnc3-c3cc(Cl)nc(Cl)c3)ccc21 [Compound 20, 5-(5-(2,6-dichloropyridin-4-yl)-1H-tetrazol-1-yl)-1-methyl-1H-indole-3-carbonitrile]",> 10000,> 10000
722,722.1 ± 5,6900 ± 300,740,740.3 ± 6.4,634,,39.7 ± 0.4,705,749,749.5 ± 5.1,756.2 ± 5.6,,701,701.5 ± 5.2,689,689 ± 7.5,705.4 ± 4.9,"COc1cc(-c2nnnn2-c2ccc3c(c2)c(C#N)cn3C)cc(Cl)n1 [Compound 21, 5-(5-(2-chloro-6-methoxypyridin-4-yl)-1H-tetrazol-1-yl)-1-methyl-1H-indole-3-carbonitrile]",> 10000,> 10000
341,341.2 ± 2.8,4600 ± 200,327,327.3 ± 2.8,312,312.3 ± 2.6,31.2 ± 0.3,335,355,355 ± 3.9,357 ± 3.9,,329,,359,359 ± 3.9,335.3 ± 3.3,"CSc1cc(-c2nnnn2-c2ccc3c(c2)c(C#N)cn3C)cc(Cl)n1 [Compound 22, 5-(5-(2-chloro-6-(methylsulfanyl)pyridin-4-yl)-1H-tetrazol-1-yl)-1-methyl-1H-indole-3-carbonitrile]",> 10000,> 10000
841,841.1 ± 6.1,7900 ± 200,877,877.2 ± 5.9,831,831.2 ± 4.8,34.1 ± 0.3,822,929,929.1 ± 7.8,927.5 ± 7.4,,963,963.3 ± 7.1,865,865.2 ± 7.2,822.3 ± 6.7,"CSc1cc(-c2nnnn2-c2ccc3c(c2)c(C#N)cn3C)cc(SC)n1 [Compound 23, 5-(5-(2,6-bis(methylsulfanyl)pyridin-4-yl)-1H-tetrazol-1-yl)-1-methyl-1H-indole-3-carbonitrile]",> 10000,> 10000
